Data from patent US5945436A, “Pyridylmethyl nitriles, amides and thioamides useful as fungicides” (Uniroyal Chemical Company, Inc., priority 1997, dated 1999).

Key:
Erysiphe graminis [1] = assay: Powdery mildew of barley, systemic root uptake (BMS); format: in vivo; settings: 45 ml of 250 mg/l, 8 days after inoculation
Description: Compositions containing Compounds Nos. 1-81 were prepared by dissolving 0.24 grams of each of the compounds in 8 ml of acetone or other suitable inert solvent. Each of the resultant solutions was treated with 3 drops of TWEEN 20 (ethoxylated ethylene sorbitan monolaurate, a non-ionic surfactant)(I.C.I.), and water was added to form an emulsion. The degree of dilution with water was dictated by the desired concentration of the compound in the composition. The greater the quantity of water added, the lower the concentration of the compound in the composition, reported in milligrams per liter (mg/l) […] Upon reaching these ages, the plants were either treated with 45 ml of 250 mg/l concentration of the compositions of Example 9 or were left untreated. The untreated plants were used as controls. The 45 ml compositions saturated the soil of the treated pots without significant loss through drainage into the saucers below the pots. Twenty-four hours after the treatment with the compositions, both the barley and cucumber plants in all the pots, those treated and those untreated, were inoculated with powdery mildew fungus. This was accomplished by tapping leaves of previously infected barley and cucumber plants over the treated and untreated pots containing the barley and cucumber plants, respectively, to distribute spores of the fungus over the plants tested. […] Intermediate ratings were assigned depending on the degree of disease. […] The results of the powdery mildew disease control of barley are reported under the heading of "BMS". The results for cucumber mildew control are reported under the heading "CMS".

Uromyces phaseoli = assay: Bean rust fungus eradicant test (URO PHA); format: in vivo; settings: Uromyces phaseoli, 216 h, pinto bean, eradicant spray 2 days after inoculation, 1,000 mg/l; read-out: Percent Reduction of Disease, URO PHA
Description: Compositions containing Compounds Nos. 1-81 were prepared by dissolving 0.24 grams of each of the compounds in 8 ml of acetone or other suitable inert solvent. Each of the resultant solutions was treated with 3 drops of TWEEN 20 (ethoxylated ethylene sorbitan monolaurate, a non-ionic surfactant)(I.C.I.), and water was added to form an emulsion. The degree of dilution with water was dictated by the desired concentration of the compound in the composition. The greater the quantity of water added, the lower the concentration of the compound in the composition, reported in milligrams per liter (mg/l) A plurality of pots were each planted with two pinto bean plants, Phaseolus vulgaris, each, susceptible to rust disease. When the plants were 7 days old, at the primary leaf stage of growth, they were all sprayed with a suspension containing 20,000 spores of the bean rust fungus, Uromyces phaseoli, per ml. All the pots were then incubated in a controlled environmental chamber, maintained at 99% humidity and 21° C., for 24 hours to allow infection to occur. The plants were then removed from the incubator and allowed to dry. Two days after inoculation each of the infected plants was then either sprayed with one of the compositions of Example 9, at a dosage of 1,000 mg/l, or left unsprayed. The unsprayed plants acted as controls. All of the sprayed and unsprayed plants were then placed in a greenhouse at 21° C. for nine days to allow the disease to develop. […] Control of disease was determined by comparing treated plants with the untreated controls. The results, expressed as percent reduction of disease, are summarized in Table II under the heading "URO PHA".

Erysiphe graminis [2] = assay: Powdery mildew in barley, foliar application (ERY GRA); format: in vivo; settings: Blumeria graminis, foliar, 192 h, foliar, 1,000 mg/l, 8 days after inoculation, read-out: Percent Reduction of Disease, ERY GRA
Description: Compositions containing Compounds Nos. 1-81 were prepared by dissolving 0.24 grams of each of the compounds in 8 ml of acetone or other suitable inert solvent. Each of the resultant solutions was treated with 3 drops of TWEEN 20 (ethoxylated ethylene sorbitan monolaurate, a non-ionic surfactant)(I.C.I.), and water was added to form an emulsion. The degree of dilution with water was dictated by the desired concentration of the compound in the composition. The greater the quantity of water added, the lower the concentration of the compound in the composition, reported in milligrams per liter (mg/l) Ten plants of "Robust" variety barley were planted in each of a plurality of pots. Each pot was then either sprayed with one of the compositions of Example 9, at a composition concentration of 1,000 mg/l, or left unsprayed. For each pot sprayed, one pot was left unsprayed as a control. After the leaves of the sprayed pots were dried, the sprayed pots and the unsprayed control pots were placed in a greenhouse maintained at 21° C. All the pots were then inoculated with barley powdery mildew fungus, Erysiphe graminis. This inoculation was accomplished by distributing spores of the fungus over the leaves of the plants to be tested from plants which had previously been infected with the mildew disease. […] Again, percent control was computed by comparing the treatment scores with the scores of the untreated controls. The results are summarized in Table II under the heading "ERY GRA".

Pyricularia oryzae = assay: whole plant or invertebrate; format: in vivo; settings: Pyricularia oryzae, in Hordeum vulgare, foliar, 216 h, read-out: Percent Reduction of Disease, PYR ORY, barley, foliar, 1,000 mg/l
Helminthosporium sativum = assay: Barley spot blotch, foliar treatment (HEL SAT); format: in vivo; settings: Helminthosporium, foliar, 216 h, foliar, 1,000 mg/l, read-out: Percent Reduction of Disease, HEL SAT
Description: Compositions containing Compounds Nos. 1-81 were prepared by dissolving 0.24 grams of each of the compounds in 8 ml of acetone or other suitable inert solvent. Each of the resultant solutions was treated with 3 drops of TWEEN 20 (ethoxylated ethylene sorbitan monolaurate, a non-ionic surfactant)(I.C.I.), and water was added to form an emulsion. The degree of dilution with water was dictated by the desired concentration of the compound in the composition. The greater the quantity of water added, the lower the concentration of the compound in the composition, reported in milligrams per liter (mg/l) Ten plants of six day-old Barley (variety "Robust") were planted in each of a plurality of pots. Each pot was then either sprayed with one of the compositions of Example 9, at a concentration of 1,000 mg/l, or left unsprayed. The unsprayed plants were used as controls. An equal number of pots were sprayed and unsprayed. All plants, sprayed and unsprayed, were thereafter inoculated with spores of the blotch fungus Helminthosporium sativum. All inoculated plants were placed in a 99% humidity chamber for 24 hours and then placed in a greenhouse, maintained at a temperature of 21° C., for eight days. […] Percent control was computed and the results are summarized in Table II under the heading "HEL SAT".

Pythium ultimum = assay: Fungal growth inhibition, treated disc on agar (PYT ULT); format: cell-based; settings: Globisporangium ultimum, disc dipped in 500 mg/l, 29° C., read-out: Percent Growth Inhibition, PYT ULT
Scierotinia minor = assay: Fungal growth inhibition, treated disc on agar (SCL MIN); format: cell-based; settings: disc dipped in 500 mg/l, 29° C., read-out: Percent Growth Inhibition, SCL MIN
Description: (§1) Filter paper discs, each 11 mm. in diameter, were dipped in each of the test solutions. The discs were allowed to air dry to drive off the acetone solvent. A number of untreated discs were used as controls.
(§2) The treated and untreated discs were then placed on agar plates and one of the following fungus species: Septoria nodorum (SEP NOD), Botrytis cinerea (BOT CIN), Fusarium oxysporum (FUS OXY), Pythium ultimum (PYT ULT), Rhizoctonia solani (RHI SOL), Colletotrichum gossypii (COL GOS), and Scierotinia minor (SCL MIN), was added to the center of each disc in the form of a culture plug with the fungus mat in contact with the paper of the test disc. Cercosporidium personatum (CER PER), was added to discs as a spore suspension (20,000 spores/ml) to the disc (two drops of spore suspension per disc), rather than a mycelial culture plug. The plates were then incubated at 29° C. in an oven.
(§3) With the exception of the discs containing Cercosporidium personatum, the discs were evaluated by first measuring the radius from the center of the fungus colony on the treated discs and on the untreated discs. Percent growth inhibition of each of the compounds tested was determined as a function of the difference between the radius of the fungus colony on the treated disc versus the radius of the fungus colony on the untreated disc.

Rhizoctonia solani = assay: Fungal growth inhibition, treated disc on agar (RHI SOL); format: cell-based; settings: Rhizoctonia solani, disc dipped in 500 mg/l, 29° C., read-out: Percent Growth Inhibition, RHI SOL
Description: as §1, §2, §3

Fusarium oxysporum = assay: Fungal growth inhibition, treated disc on agar (FUS OXY); format: cell-based; settings: Fusarium oxysporum, disc dipped in 500 mg/l, 29° C., read-out: Percent Growth Inhibition, FUS OXY

| SMILES | Percent Reduction of Disease, BMS (Erysiphe graminis [1]) [%] | pest or weed control at 1000 µg/mL (Uromyces phaseoli) [%] | pest or weed control at 1000 µg/mL (Erysiphe graminis [2]) [%] | pest or weed control at 1000 µg/mL (Pyricularia oryzae) [%] | pest or weed control at 1000 µg/mL (Helminthosporium sativum) [%] | inhibition at 500 µg/mL (Pythium ultimum) [%] | inhibition at 500 µg/mL (Scierotinia minor) [%] | inhibition at 500 µg/mL (Rhizoctonia solani) [%] | inhibition at 500 µg/mL (Fusarium oxysporum) [%] |
| --- | --- | --- | --- | --- | --- | --- | --- | --- | --- |
| N#CC(CCc1ccccc1)(CCc1ccccc1)c1cccnc1 [A, reference compound] | 15 | 0 | 0 | 10 | 60 | 10 | 10 | 10 | 10 |
| CC(C)(C)c1ccc(CC(C#N)(Cc2ccc(C(C)(C)C)cc2)c2cccnc2)cc1 [B, reference compound] | 10 | 0 | 15 |  | 0 | 15 | 60 | 15 | 0 |
| CCCC(C#N)(CCc1ccccc1)c1cccnc1 (stereo not shown) [Compound 1] | 60 | 60 | 100 | 0 | 65 | 40 | 100 | 95 | 97 |
| CCCCCCCC(C#N)(CCc1ccccc1)c1cccnc1 (stereo not shown) [Compound 2] | 0 | 97 | 100 | 45 | 80 | 0 | 100 | 0 | 30 |
| CCCCCC(C#N)(CCc1ccccc1)c1cccnc1 (stereo not shown) [Compound 3] | 35 | 100 | 100 | 100 | 100 | 5 | 100 | 10 | 0 |
| C#CCC(C#N)(CCc1ccccc1)c1cccnc1 (stereo not shown) [Compound 4] | 35 | 0 | 70 | 50 | 0 | 100 | 98 | 82 | 100 |
| C=CCC(C#N)(CCc1ccccc1)c1cccnc1 (stereo not shown) [Compound 5] | 85 | 90 | 85 | 83 | 70 | 82 | 95 | 100 | 76 |
| COCC(C#N)(CCc1ccccc1)c1cccnc1 (stereo not shown) [Compound 6] | 100 | 50 | 70 | 0 | 100 | 50 | 100 | 50 | 93 |
| CC(C)CC(C#N)(CCc1ccccc1)c1cccnc1 (stereo not shown) [Compound 7] | 35 | 90 | 100 | 83 | 70 | 35 | 10 | 94 | 100 |
| CC(C)=CCC(C#N)(CCc1ccccc1)c1cccnc1 (stereo not shown) [Compound 8] | 45 | 80 | 100 | 0 | 100 | 35 | 100 | 45 | 0 |
| C=CCC(C#N)(CCc1ccc(F)cc1)c1cccnc1 (stereo not drawn) [Compound 9, 4-fluoro-α-(2-propenyl)-α-(3-pyridinyl)benzenebutanenitrile] | 40 | 100 | 100 | 70 | 85 | 35 | 98 | 95 | 100 |
| CCCCC(C#N)(CCc1ccc(C)cc1)c1cccnc1 (stereo not shown) [Compound 34] | 0 | 100 | 100 | 0 | 100 | 0 | 100 |  | 100 |
| C=C(Cl)CC(C#N)(CCc1ccc(F)cc1)c1cccnc1 (stereo not shown) [Compound 65] | 0 | 50 | 85 |  | 100 | 100 | 100 | 30 | 100 |
| Cc1ccc(CCC(C#N)(CCCF)c2cccnc2)cc1 (stereo not shown) [Compound 81] | 0 | 90 | 70 |  |  | 20 | 0 | 5 | 20 |
